The subject of data set [1] is human megakaryocytopoiesis. Conditions: cited from earlier work.
The conditions of data set [2]: in vivo; cited from earlier work.
Data set [3] in a line: Pharmacokinetics in humans. In kind it is in vivo, human. The conditions noted are these: after anagrelide treatment. The source says:
The metabolism of anagrelide generally proceeds extremely rapidly, resulting in a less than ideal pharmacokinetic profile of the drug. […] This, combined with the side-effects profile, can lead to poor patient compliance. Furthermore, anagrelide undergoes a large first pass effect (>50%) leading to considerable intersubject variation in achieved exposures and, therefore, potentially variable drug response. Also, exposure to the pharmacologically active metabolite varies dramatically between patients since its formation is dependent on CYP1A, an enzyme whose expression is highly dependent on exposure to inducing agents such as cigarette smoke. Overall, this may result in the need for careful dose titration in patients being treated with anagrelide.

Data set [4] has as its system human phosphodiesterase III (PDE III). The experiment in a line: PDE III inhibition. In kind it is biochemical. The source says: In early volunteer trials, the most frequently reported adverse effects AEs other than headache were palpitations, postural dizziness and nausea. During patient studies, the most frequently reported drug-related AEs were headache, palpitations, oedema/fluid retention, nausea/vomiting, diarrhea, dizziness and abdominal pain. These effects are all likely to arise from the secondary, cardiovascular pharmacology associated with anagrelide resulting from its inhibitory effects on human phosphodiesterase III (PDE III). […] Inhibition of myocardial PDE III leads to positive inotropy (increasing of the force of contractions of the heart), increased chronotropy (increase in heart rate), and peripheral vasodilatation. Such cardiovascular manifestations of this inhibition are typically seen with the classical positive inotropes, milrinone and enoximone, and exploited in the short-term acute treatment of congestive heart failure. However, in the treatment of a so-called silent disease (i.e., asymptomatic) such as ET, the cardiovascular side-effects of palpitations and tachycardia associated with anagrelide limit its utility and a significant proportion of patients—reportedly between 25 and 50%—fail to tolerate the drug during long term treatment.

For data set [5], the target named is human phosphodiesterase III (PDE III). Conditions: cited from earlier work.
Data set [6] relates to erythroid or myelomonocytic differentiation. Conditions: stimulated by erythropoietin or granulocyte-macrophage colony-stimulating factor; cited from earlier work.

Counter-ions that a name gives are not always drawn. Some results are limits rather than exact numbers.

`O=C1NC2=Nc3ccc(Cl)c(Cl)c3CN2C1O` (stereo not drawn) [3-hydroxyanagrelide]: the “potency of inhibition of megakaryocytopoiesis relative to the parent drug” value in data set [1] is listed as “no more potent than the parent drug”. Besides, the typical half-life in data set [2] is 2.5 h. Further, the “exposure in vivo relative to the parent drug” value in data set [3] is reported as 2-3 fold. In data set [4], the “potency as PDE III inhibitor relative to anagrelide” value is recorded as “over 40 fold”.
On to `O=C1CN2Cc3c(ccc(Cl)c3Cl)N=C2N1` [Anagrelide, 6,7-dichloro-1,5-dihydroimidazo[2,1-b]-quinazolin-2(3H)-one hydrochloride monohydrate], for which the IC50 in data set [5] was roughly 29 nM; in data set [1] (in vitro, dose-dependent, read-out: estimated IC50, inhibition of TPO-induced megakaryocytopoiesis), roughly 26 nM. For the same compound, in data set [6], the “effect on erythroid or myelomonocytic differentiation” value is on record as “does not affect”. The first pass effect in data set [2] is on record as greater than 50%.
With `Cc1[nH]c(=O)c(C#N)cc1-c1ccncc1` [milrinone], the half-maximal inhibitory concentration (IC50) in data set [5] was 170 to 350 nM.

One may read the IC50 as the concentration needed to halve the response being measured.
